From patent publication US20260167619A2, “INDOLINE COMPOUNDS AND DERIVATIVES AS EGFR INHIBITORS” (BeOne Medicines I GmbH, priority 2020, published 2026)

Experiments:
[1] = molecular target: T1, EGFR (aa668-1210, Invitrogen) (Homo sapiens, UniProt P00533); experiment: Biochemical EGFR inhibition assay (TR-FRET), wild-type EGFR; details: ATP at Km, 15 min pre-incubation, 60 min reaction; read-out: WT (Km ATP) IC50
T1 construct: EGFR (aa668-1210, Invitrogen); purchased Invitrogen
Procedure: (§1) Compounds were tested for inhibition of kinase activity against EGFR (aa668-1210, Invitrogen), EGFR(L858R_T790M_C797S) (aa695-end, Invitrogen) and EGFR(Dell9_T790M_C797S) (aa 669-1210, in house) in assays based on time-resolved fluorescence-resonance energy transfer (TR-FRET) methodology. Recombinant EGFR, EGFR(L858R_T790M_C797S) or EGFR(Dell9_T790M_C797S) was pre-incubated with the compounds at room temperature for 15 minutes in an assay buffer containing 50 mM HEPES pH7.5, 10 mM MgCl2, 2 mM DTT, 1 mM EGTA, 0.1% BSA, 0.01% Tween-20. The reactions were initiated by the addition of ATP (at the concentration of ATP Km) and substrate Biotin-Poly GT. After reaction at room temperature for 60 minutes, stop/detection solution was added. The stop/detection solution contained Eu^3+ cryptate-conjugated mouse monoclonal antibody (PT66) anti-phosphotyrosine and XL665-conjugated streptavidin in buffer containing 50 mM HEPES pH7.0, 800 mM KF, 20 mM EDTA, and 0.1% BSA. Plates were sealed and incubated at room temperature for 1 hour, and the TR-FRET signals (ratio of fluorescence emission at 665 nm over emission at 620 nm with excitation at 337 nm wavelength) were recorded on a PHERAstar FS plate reader (BMG Labtech). The residual enzyme activity in presence of increasing concentrations of compounds was calculated based on the ratio of fluorescence at 665 nm to that at 620 nm. The IC50 for each compound was derived from fitting the data to the four-parameter logistic equation by Dotmatics or Graphpad Prism software.
(§2) These biochemical EGFR enzyme form compound dose-response assays quantify the kinase activity via phosphorylation of a tagged poly-GT substrate. The results of the assay are provided as IC50 values.

[2] = molecular target: EGFR(Dell9_T790M_C797S) (aa 669-1210, in house) (Homo sapiens, UniProt P00533, T790M/C797S, form not given); experiment: Biochemical EGFR inhibition assay (TR-FRET), Del19/T790M/C797S mutant; details: ATP at Km, 15 min pre-incubation, 60 min reaction; read-out: Del_TM_CS (Km ATP) IC50
Procedure: as §1, §2

[3] = molecular target: T2, EGFR(L858R_T790M_C797S) (aa695-end, Invitrogen) (Homo sapiens, UniProt P00533, C797S/L858R/T790M); experiment: Biochemical EGFR inhibition assay (TR-FRET), L858R/T790M/C797S mutant; details: ATP at Km, 15 min pre-incubation, 60 min reaction; read-out: LR_TM_CS (Km ATP) IC50
T2 construct: purchased Invitrogen
Procedure: as §1, §2

Sequence of EGFR(Dell9_T790M_C797S) (aa 669-1210, in house) (P00533 with tags, fused parts or gaps DEL746-750/T790M/C797S, form open): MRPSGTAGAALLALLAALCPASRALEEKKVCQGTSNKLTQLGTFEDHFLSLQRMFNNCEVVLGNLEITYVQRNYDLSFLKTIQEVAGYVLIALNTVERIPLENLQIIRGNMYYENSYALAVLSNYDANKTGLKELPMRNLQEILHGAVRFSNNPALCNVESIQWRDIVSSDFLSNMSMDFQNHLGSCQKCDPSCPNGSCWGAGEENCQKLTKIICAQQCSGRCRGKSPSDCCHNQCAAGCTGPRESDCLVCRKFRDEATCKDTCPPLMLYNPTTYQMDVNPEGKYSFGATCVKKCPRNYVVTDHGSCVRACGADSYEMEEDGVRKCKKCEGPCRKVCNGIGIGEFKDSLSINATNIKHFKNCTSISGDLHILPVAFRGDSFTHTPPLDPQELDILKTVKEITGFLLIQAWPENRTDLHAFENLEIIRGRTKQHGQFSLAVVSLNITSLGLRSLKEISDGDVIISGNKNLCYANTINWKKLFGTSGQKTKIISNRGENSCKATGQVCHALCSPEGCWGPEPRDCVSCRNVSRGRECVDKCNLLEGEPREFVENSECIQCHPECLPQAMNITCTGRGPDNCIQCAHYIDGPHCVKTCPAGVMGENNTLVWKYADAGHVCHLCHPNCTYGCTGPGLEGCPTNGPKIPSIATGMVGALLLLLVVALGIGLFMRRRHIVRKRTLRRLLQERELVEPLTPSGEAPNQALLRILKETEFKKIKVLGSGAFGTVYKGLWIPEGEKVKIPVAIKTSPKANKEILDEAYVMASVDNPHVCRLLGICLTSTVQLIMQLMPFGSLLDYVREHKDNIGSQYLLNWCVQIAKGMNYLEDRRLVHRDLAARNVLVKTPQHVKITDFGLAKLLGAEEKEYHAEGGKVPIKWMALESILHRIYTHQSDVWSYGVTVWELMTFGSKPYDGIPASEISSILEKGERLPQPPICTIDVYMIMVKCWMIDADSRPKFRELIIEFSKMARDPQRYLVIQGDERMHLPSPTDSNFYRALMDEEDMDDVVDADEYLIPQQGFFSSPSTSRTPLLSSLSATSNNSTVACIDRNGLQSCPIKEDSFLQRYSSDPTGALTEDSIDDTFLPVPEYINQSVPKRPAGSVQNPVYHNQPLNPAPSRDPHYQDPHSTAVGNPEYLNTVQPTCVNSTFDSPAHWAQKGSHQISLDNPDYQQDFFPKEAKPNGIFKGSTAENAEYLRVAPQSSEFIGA
T2 sequence (P00533 695-1210 T790M/C797S/L858R): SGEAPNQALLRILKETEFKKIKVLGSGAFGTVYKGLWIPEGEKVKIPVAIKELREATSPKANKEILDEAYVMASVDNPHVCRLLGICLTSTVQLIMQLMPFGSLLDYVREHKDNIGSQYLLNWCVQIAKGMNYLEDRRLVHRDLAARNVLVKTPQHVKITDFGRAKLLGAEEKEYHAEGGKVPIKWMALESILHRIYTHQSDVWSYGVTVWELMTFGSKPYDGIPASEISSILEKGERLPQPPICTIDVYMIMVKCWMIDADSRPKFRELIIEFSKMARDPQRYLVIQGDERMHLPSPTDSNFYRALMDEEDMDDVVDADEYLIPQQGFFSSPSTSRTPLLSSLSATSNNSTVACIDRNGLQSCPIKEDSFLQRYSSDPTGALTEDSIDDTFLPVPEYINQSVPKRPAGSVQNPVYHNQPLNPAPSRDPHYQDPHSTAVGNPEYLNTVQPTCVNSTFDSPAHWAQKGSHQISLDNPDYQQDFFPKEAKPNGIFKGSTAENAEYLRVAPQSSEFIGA
T1 sequence (P00533 668-1210): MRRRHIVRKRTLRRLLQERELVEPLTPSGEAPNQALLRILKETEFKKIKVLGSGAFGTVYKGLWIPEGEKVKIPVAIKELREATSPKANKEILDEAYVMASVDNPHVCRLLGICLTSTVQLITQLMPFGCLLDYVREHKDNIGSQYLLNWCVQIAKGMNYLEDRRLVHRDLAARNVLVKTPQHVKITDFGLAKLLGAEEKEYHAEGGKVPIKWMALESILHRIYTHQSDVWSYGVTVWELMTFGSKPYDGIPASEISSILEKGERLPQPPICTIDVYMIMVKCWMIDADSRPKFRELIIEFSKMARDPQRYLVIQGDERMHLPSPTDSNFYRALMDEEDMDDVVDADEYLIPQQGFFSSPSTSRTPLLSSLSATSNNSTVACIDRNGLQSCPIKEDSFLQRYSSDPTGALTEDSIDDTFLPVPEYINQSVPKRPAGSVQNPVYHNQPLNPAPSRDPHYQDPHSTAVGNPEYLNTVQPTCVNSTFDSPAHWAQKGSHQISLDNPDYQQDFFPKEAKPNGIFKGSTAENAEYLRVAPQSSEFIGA

Compound	IC50 [1] [nM]	IC50 [2] [nM]	IC50 [3] [nM]
COc1cc(N2CCC(N3CCN(C)CC3)CC2)ccc1Nc1ncc(Br)c(Nc2cccc3c2N(S(C)(=O)=O)C(C)(C)C3)n1 [Example 134, 5-bromo-N4-(2,2-dimethyl-1-(methylsulfonyl)indolin-7-yl)-N2-(2-methoxy-4-(4-(4-methylpiperazin-1-yl)piperidin-1-yl)phenyl)pyrimidine-2,4-diamine]	11.5	0.8	0.3
CN1CCN(C2CCN(c3ccc(Nc4nc(Nc5cccc6c5N(S(C)(=O)=O)CC6)c5cc[nH]c5n4)c4c3OCO4)CC2)CC1 [Example 182, N2-(7-(4-(4-methylpiperazin-1-yl)piperidin-1-yl)benzo[d][1,3]dioxol-4-yl)-N4-(1-(methylsulfonyl)indolin-7-yl)-7H-pyrrolo[2,3-d]pyrimidine-2,4-diamine]	230	1.5	1.2
COc1cc(N(C)CCN(C)C)ccc1Nc1nc(Nc2cccc3c2N(S(C)(=O)=O)CC3)c2cc[nH]c2n1 [Example 112, N^2-(4-((2-(dimethylamino)ethyl)(methyl)amino)-2-methoxyphenyl)-N^4-(1-(methylsulfonyl)indolin-7-yl)-7H-pyrrolo[2,3-d]pyrimidine-2,4-diamine]	840	14.6	2.9
COc1cc(-c2cnn(CCN(C)C)c2)ccc1Nc1nc(Nc2cccc3c2N(S(C)(=O)=O)CC3)c2cc[nH]c2n1 [Example 113, N^2-(4-(1-(2-(dimethylamino)ethyl)-1H-pyrazol-4-yl)-2-methoxyphenyl)-N^4-(1-(methylsulfonyl)indolin-7-yl)-7H-pyrrolo[2,3-d]pyrimidine-2,4-diamine]	1470	18.5	16
COc1cc(Nc2nc(Nc3cccc4c3N(S(C)(=O)=O)CC4)c3cc[nH]c3n2)cc(F)c1N1CCC(N2CCN(C)CC2)CC1 [Example 148, N2-(3-fluoro-5-methoxy-4-(4-(4-methylpiperazin-1-yl)piperidin-1-yl)phenyl)-N4-(1-(methylsulfonyl)indolin-7-yl)-7H-pyrrolo[2,3-d]pyrimidine-2,4-diamine]	1390	6.5	9.9
CCN1CCN(C2CCN(c3c(F)cc(Nc4nc(Nc5cccc6c5N(S(C)(=O)=O)CC6)c5cc[nH]c5n4)cc3F)CC2)CC1 [Example 78, N^2-(4-(4-(4-ethylpiperazin-1-yl)piperidin-1-yl)-3,5-difluorophenyl)-N^4-(1-(methylsulfonyl)indolin-7-yl)-7H-pyrrolo[2,3-d]pyrimidine-2,4-diamine]	99	2	1.5
CN1CCN(C2CCN(c3ccc(Nc4nc(Nc5cccc6c5N(S(C)(=O)=O)CC6)c5cc[nH]c5n4)nc3)CC2)CC1 [Example 154, N2-(5-(4-(4-methylpiperazin-1-yl)piperidin-1-yl)pyridin-2-yl)-N4-(1-(methylsulfonyl)indolin-7-yl)-7H-pyrrolo[2,3-d]pyrimidine-2,4-diamine]	303	2.2	2.7
CN1CCN(C2CCN(c3ccc(Nc4nc(Nc5cccc6c5N(S(C)(=O)=O)CC6)c5cc[nH]c5n4)cc3)CC2)CC1 [Example 194, N2-(4-(4-(4-methylpiperazin-1-yl)piperidin-1-yl)phenyl)-N4-(1-(methylsulfonyl)indolin-7-yl)-7H-pyrrolo[2,3-d]pyrimidine-2,4-diamine]	16.5	0.2	0.1
COc1cc(N2CCC(N3CCN(C)C(=O)C3)CC2)ccc1Nc1nc(Nc2cccc3c2N(S(C)(=O)=O)CC3)c2cc[nH]c2n1 [Example 186, 4-(1-(3-methoxy-4-((4-((1-(methylsulfonyl)indolin-7-yl)amino)-7H-pyrrolo[2,3-d]pyrimidin-2-yl)amino)phenyl)piperidin-4-yl)-1-methylpiperazin-2-one]	140	4.9	1.5
COc1cc(C2CCN(CCN(C)C)CC2)c(C)cc1Nc1nc(Nc2cccc3c2N(S(C)(=O)=O)CC3)c2cc[nH]c2n1 [Example 109, N^2-(4-(1-(2-(dimethylamino)ethyl)piperidin-4-yl)-2-methoxy-5-methylphenyl)-N^4-(1-(methylsulfonyl)indolin-7-yl)-7H-pyrrolo[2,3-d]pyrimidine-2,4-diamine]	433	10	3.1

Now those with a lower IC50 [1], led by results:

IC50 [1] [nM]	IC50 [2] [nM]	IC50 [3] [nM]	Compound
10.3	1.57	1.7	CN1CCN(c2c(F)cc(Nc3ncc(Br)c(Nc4cccc5c4N(S(C)(=O)=O)CC5)n3)c3c2CCO3)CC1 [Example 58, 5-bromo-N^2-(5-fluoro-4-(4-methylpiperazin-1-yl)-2,3-dihydrobenzofuran-7-yl)-N^4-(1-(methylsulfonyl)indolin-7-yl)pyrimidine-2,4-diamine]
9.3	1.5	1.3	C#Cc1cnc(Nc2ccc(N3CCC(N4CCN(C)CC4)CC3)cc2OC)nc1Nc1cccc2c1N(S(C)(=O)=O)CC2 [Example 196, 5-ethynyl-N2-(2-methoxy-4-(4-(4-methylpiperazin-1-yl)piperidin-1-yl)phenyl)-N4-(1-(methylsulfonyl)indolin-7-yl)pyrimidine-2,4-diamine]
8.5	0.3	0.4	COc1cc(N2C[C@@H](C)N(C)[C@@H](C)C2)c(C)cc1Nc1ncc(Br)c(Nc2cccc3c2N(S(C)(=O)=O)CC3)n1 [Example 42, 5-bromo-N^2-(2-methoxy-5-methyl-4-((3S,5R)-3,4,5-trimethylpiperazin-1-yl)phenyl)-N^4-(1-(methylsulfonyl)indolin-7-yl)pyrimidine-2,4-diamine]
7.1	0.2	0.9	CN1CCN(C2CCN(c3ccc(Nc4ncc(Br)c(Nc5cccc6c5N(S(C)(=O)=O)CC6)n4)c4c3OCCO4)CC2)CC1 [Example 193, 5-bromo-N2-(8-(4-(4-methylpiperazin-1-yl)piperidin-1-yl)-2,3-dihydrobenzo[b][1,4]dioxin-5-yl)-N4-(1-(methylsulfonyl)indolin-7-yl)pyrimidine-2,4-diamine]
1.1	0.24	0.2	CN(C)C1CCN(c2c(F)cc(Nc3ncc(Br)c(Nc4cccc5c4N(S(C)(=O)=O)CC5)n3)c3c2CCO3)CC1 [Example 59, 5-bromo-N^2-(4-(4-(dimethylamino)piperidin-1-yl)-5-fluoro-2,3-dihydrobenzofuran-7-yl)-N^4-(1-(methylsulfonyl)indolin-7-yl)pyrimidine-2,4-diamine]
0.8	0.3	0.3	COc1cc(N2CCC(N3CCN(C)CC3)CC2)ccc1Nc1ncc(Cl)c(Nc2cccc3c2N(S(C)(=O)=O)CC32CC2)n1 [Example 187, 5-chloro-N2-(2-methoxy-4-(4-(4-methylpiperazin-1-yl)piperidin-1-yl)phenyl)-N4-(1′-(methylsulfonyl)spiro[cyclopropane-1,3′-indolin]-7′-yl)pyrimidine-2,4-diamine]
0.7	0.2	0.1	COc1cc(N2CCC(N3CCN(C)C4(CC4)C3)CC2)ccc1Nc1ncc(Br)c(Nc2cccc3c2N(S(C)(=O)=O)CC3)n1 [Example 192, 5-bromo-N2-(2-methoxy-4-(4-(4-methyl-4,7-diazaspiro[2.5]octan-7-yl)piperidin-1-yl)phenyl)-N4-(1-(methylsulfonyl)indolin-7-yl)pyrimidine-2,4-diamine]
